Source: patent publication US20210236466A1, “COMPOUNDS AND COMPOSITIONS FOR TREATING CONDITIONS ASSOCIATED WITH STING ACTIVITY” (IFM Due, Inc., priority 2018, published 2021)

What follows are compounds tested against T1, hSTING (Homo sapiens, UniProt Q86WV6, G230A/H232R/R293Q/R71H) (assay: STING reporter assay: luciferase reporter activity in THP1-Dual KO-IFNAR2 cells stimulated with 2'3'cGAMP). Details: 15 μM 2'3'cGAMP, 24 h.
T1 construct: host or cells: THP1-Dual KO-IFNAR2 cells
Assay type: cell-based
Description: STING pathway activation by the compounds described herein is measured using THP1-Dual™ cells (KO-IFNAR2).
THP1-Dual™ KO-IFNAR2 Cells (obtained from invivogen) are maintained in RPMI, 10% FCS, 5 ml P/S, 2 mM L-glut, 10 mM Hepes, and 1 mM sodium pyruvate. Compounds are spotted in empty 384 well tissue culture plates (Greiner 781182) by Echo for a final concentration of 0.0017-100 μM. Cells are plated into the TC plates at 40 μL per well, 2×10E6 cells/mL. For activation with STING ligand, 2′3′cGAMP (MW 718.38, obtained from Invivogen), is prepared in Optimem media.
The following solutions are prepared for each 1×384 plate: • Solution A: 2 mL Optimem with one of the following stimuli: • 60 uL of 10 mM 2′3′cGAMP->150 μM stock • Solution B: 2 mL Optimem with 60 μL Lipofectamine 2000->Incubate 5 min at RT
2 mL of solution A and 2 ml Solution B is mixed and incubated for 20 min at room temperature (RT). 20 uL of transfection solution (A+B) is added on top of the plated cells, with a final 2′3′cGAMP concentration of 15 μM. The plates are then centrifuged immediately at 340 g for 1 minute, after which they are incubated at 37° C. 5% CO2, >98% humidity for 24 h. Luciferase reporter activity is then measured. EC50 values are calculated by using standard methods known in the art.
Luciferase reporter assay: 10 μL of supernatant from the assay is transferred to white 384-plate with flat bottom and squared wells, one pouch of QUANTI-Luc™ Plus is dissolved in 25 mL of water. 100 μL of QLC Stabilizer per 25 mL of QUANTI-Luc™ Plus solution is added. 50 μL of QUANTI-Luc™ Plus/QLC solution per well is then added. Luminescence is measured on a Platereader (e.g., Spectramax I3X (Molecular Devices GF3637001)).
Luciferase reporter activity is then measured. EC50 values are calculated by using standard methods known in the art.

T1 sequence (Q86WV6 whole entry R71H/G230A/H232R/R293Q): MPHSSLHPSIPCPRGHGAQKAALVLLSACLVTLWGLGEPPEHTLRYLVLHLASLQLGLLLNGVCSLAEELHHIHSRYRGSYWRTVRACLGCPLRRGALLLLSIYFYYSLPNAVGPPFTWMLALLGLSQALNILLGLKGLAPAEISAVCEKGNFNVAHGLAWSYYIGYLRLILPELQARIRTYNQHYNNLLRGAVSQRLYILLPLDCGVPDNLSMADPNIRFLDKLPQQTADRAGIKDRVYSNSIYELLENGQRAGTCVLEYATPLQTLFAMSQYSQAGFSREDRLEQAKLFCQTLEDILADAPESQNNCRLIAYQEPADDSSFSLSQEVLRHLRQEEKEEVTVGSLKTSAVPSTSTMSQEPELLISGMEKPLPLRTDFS

Row | EC50 [µM] | Compound
1 | < 5 | O=C(Nc1ccc(C2CCCCC2)nc1)Nc1c[nH]nc1-c1ccccc1 [Compound 36]
2 | 5 to 100 | O=C(Nc1ccc(C(F)(F)F)nc1)Nc1c[nH]nc1-c1ccccc1 [Compound 37]
3 | 5 to 100 | O=C(Nc1ccc(C2CCCCC2)cn1)Nc1c[nH]nc1-c1ccccc1 [Compound 38]
4 | < 5 | O=C(Nc1ccc(C(F)(F)F)cn1)Nc1c[nH]nc1-c1ccccc1 [Compound 39]
5 | 5 to 100 | O=C(Nc1c[nH]nc1-c1ccccc1)NC1CCC2(CCC2)CC1 [Compound 40]
6 | 5 to 100 | CCCCc1ccc(NC(=O)Nc2c[nH]nc2C)cc1 [Compound 41]
7 | < 5 | CCCCc1ccc(NC(=O)Nc2c[nH]nc2-c2ccsc2)cc1 [Compound 42]
8 | < 5 | CCCCc1ccc(NC(=O)Nc2c[nH]nc2-c2nccs2)cc1 [Compound 43]
9 | 5 to 100 | CCCCc1ccc(NC(=O)Nc2c[nH]nc2C2CCCCC2)cc1 [Compound 44]
10 | < 5 | CCCCc1ccc(NC(=O)Nc2c[nH]nc2-c2ccccc2F)cc1 [Compound 45]
11 | 5 to 100 | CCCCc1cccc(NC(=O)Nc2c[nH]nc2-c2ccccc2)c1 [Compound 46]
12 | < 5 | CCCCc1ccc(NC(=O)Nc2c[nH]nc2-c2ccccn2)cc1 [Compound 47]
13 | 5 to 100 | CC(C)(C)C1CCC(NC(=O)Nc2c[nH]nc2-c2ccccc2)CC1 (stereo not drawn) [Compound 48]
14 | 5 to 100 | O=C(Nc1c[nH]nc1-c1ccccc1)NC1CCc2ccccc2C1 (stereo not drawn) [Compound 49]
15 | 5 to 100 | O=C(Nc1c[nH]nc1-c1ccccc1)NC1CCCc2ccccc21 (stereo not drawn) [Compound 50]
16 | 5 to 100 | O=C(Nc1c[nH]nc1-c1ccccc1)NC1CCCC(c2ccccc2)C1 (stereo not drawn) [Compound 51, 3-(3-Phenyl-1H-pyrazol-4-yl)-1-(3-phenylcyclohexyl)urea]
17 | 5 to 100 | CCCCc1ccc(NC(=O)Nc2cn[nH]c2)cc1 [Compound 52]
18 | 5 to 100 | CCCCC1CCC(NC(=O)Nc2c[nH]nc2-c2ccccc2)CC1 (stereo not drawn) [Compound 54]
19 | 5 to 100 | O=C(Nc1c[nH]nc1-c1ccccc1)NC1CCC(c2ccccc2)CC1 (stereo not drawn) [Compound 55]
20 | 5 to 100 | O=C(Nc1cccc(C(F)(F)F)c1)Nc1c[nH]nc1-c1ccccc1 [Compound 56]
21 | 5 to 100 | O=C(Nc1ccc(C(F)(F)F)cc1)Nc1cn[nH]c1 [Compound 57]
22 | 5 to 100 | O=C(Nc1ccc(C(F)(F)F)cc1)Nc1c[nH]nc1-c1ccccc1 [Compound 58]
23 | < 5 | CCCCc1ccc(NC(=O)Nc2c[nH]nc2-c2ccccc2)cc1 [Compound 59, l-(4-Butylphenyl)-3-(3-phenyl-1H-pyrazol-4-yl)urea]
24 | 5 to 100 | CCCCc1ccc(NC(=O)N2CCCc3n[nH]cc32)cc1 [Compound 60]
